Experiments:
cytochrome P450 CYP3A4 = settings: cited from earlier work
[1] = cited from earlier work
[2] = Plasma pharmacokinetics after single and repeat oral dose, LC-MS/MS, non-compartmental analysis; type: in vivo, Beagle dogs; settings: for Tmax: TMAX (trametinib in plasma), median (range)
Procedure: (§1) Laboratory Beagle dogs (Charles River Labs, Mattawan, MI) served as surrogates in testing compounds proposed for application in canine clinical cancer care. The animals were at least six months old and weighed 6.4–8.8 kg at the initiation of study. They had routine veterinary care and had not been used in any previous studies. The study was conducted in AAALAC-accredited animal facilities [Charles River Laboratories, Inc., Mattawan, MI; NIH Office of Laboratory Animal Welfare Assurance approval (https://olaw.nih.gov/assured/app/index.html)], under review, monitoring, and approval of the facility's Institutional Animal Care and Use Committee according to U.S. Public Health Service national guidelines and regulations for the care and use of laboratory animals. The study was not designed to incorporate Good Laboratory Practices (GLP) regulatory criteria. Animals on study were monitored daily or more frequently and body weights were recorded, while periodic specimens were obtained for laboratory analyses. Clinical pathology analyses were included for hematology, serum chemistry, coagulation, urinalysis, and chemical bioanalysis was accomplished for pharmacokinetics (PK) (Table 1, repeat dose study) (Charles River Laboratories, Mattawan, MI).
Six male and six female beagle dogs were enrolled in a parallel, three-arm, fixed, repeat oral-dose study. […] In Group 2, two male (23001, 23002) and two female (23501, 23502) dogs were given sapanisertib alone (0.1 mg/kg) every other day (p.o., QOD). […] All dogs were dosed on study day 1 to obtain single dose PK samples, and then dosed serially days 4–20. Dogs were fasted overnight prior to dosing and fed ad libitum 2 h (hrs) following dose administration.
Plasma samples for PK were collected at pre-dose (-7 days), then beginning day 1 following the initial dose of each study group at 1, 2, 4, 8, 24, 48, and 72 h. On day 6, plasma samples were collected pre-dose, then 1, 2, 4, 8, and 24 h post-dose. On days 10 and 15, a 2-h post-dose sample was collected. On day 20, plasma samples were drawn at pre-dose and 1, 2, 4, 8, 24, 48, and 72 h post-dose. Treatment schedule and clinical pathology specimen sampling intervals are outlined in Table 1.
(§2) Each 50 μL aliquot of known concentration standards, quality control sample, or study sample was mixed with 200 μL of working internal standard solution (10 ng/mL in acetonitrile). The samples were vortexed and centrifuged. A 150 μL aliquot of the resulting supernatant was transferred to a clean 96-well plate, evaporated, and reconstituted with 100 μL of water/acetonitrile (40/60, v/v). An aliquot was injected onto an LC-MS/MS XBridge BEH C18 liquid chromatography system (Waters Associates, Framingham, MA) having 50 x 2.1 mm (2.5 μm particle size) column with an isocratic flow consisting of water/formic acid (100/0.1, v/v) and acetonitrile/formic acid (100/0.1, v/v) at a flow rate of 0.3000 mL/min for analysis. The analyte and internal standard were detected using an API 6500+ triple quadrupole LC-MS/MS system (AB Sciex, LLC, Framingham, MA) equipped with an ESI (TurboIonSpray®) ionization source operated in the positive ion mode.
A non-compartmental approach to PK analysis was employed using Phoenix WinNonlin v8.3 (Certara Corp, Cary, NC) that was validated per FDA 21CFR Part 11 regulations. The maximum plasma concentration (CMAX) and the time of maximum plasma concentration (TMAX) were recorded as observed values. […] AUCINF (the AUC from time zero to infinity) was calculated by extrapolation by dividing CLAST (the last measurable drug concentration) by the rate constant of the terminal phase, λZ. This constant was determined from the slope of the terminal phase of the concentration-time curve using uniformly-weighted least-squares as the estimation procedure and acceptance criteria of (i) adjusted r^2 > 0.8, (ii) includes > 3 time points in the terminal phase occurring after the TMAX. […]

laboratory beagle dogs = experiment: Repeat dose tolerability: clinical observations, hematology, serum chemistry, coagulation, urinalysis; type: in vivo
Procedure: as §1
Six male and six female beagle dogs were enrolled in a parallel, three-arm, fixed, repeat oral-dose study. […] All dogs were dosed on study day 1 to obtain single dose PK samples, and then dosed serially days 4–20. Dogs were fasted overnight prior to dosing and fed ad libitum 2 h (hrs) following dose administration.
On days 10 and 15, a 2-h post-dose sample was collected. […] Treatment schedule and clinical pathology specimen sampling intervals are outlined in Table 1. […]
Sampling for hematology, serum chemistry, coagulation and urinalysis was conducted to facilitate monitoring treatment effects over various time points, and values obtained were compared to pre-treatment measurements for each subject (Table 1).

[3] = parameters: method as in PMID 32943547; settings: combination with sapanisertib, p <0.001; cited from earlier work
[4] = Pilot single oral dose plasma trametinib concentrations (initial formulation); type: in vivo; settings: fasted dogs
Procedure: as §2
These analytical findings, even under animal fasting conditions, were independently verified at the NCI Clinical Pharmacology Program. […] Consequently, trametinib was reformulated for this study by […] with equimolar dimethyl sulfoxide (DMSO) (Wedgewood Pharmacy, Swedesboro, NJ), consistent with the human formulation ([…]®, Novartis), and used for all subsequent evaluations. […]

[5] = ref MEKINIST Prescribing Information

Compound | Induction of cytochrome P450 CYP3A4 (cytochrome P450 CYP3A4) | Trametinib accumulation upon repeat daily dosing in humans [1] | Clearance of trametinib in humans [1, 5] [mL/min/kg] | Distribution volume of trametinib in humans [1, 5] [L/kg] | CMAX or AUC, male versus female dogs ([2]; Mann-Whitney, p > 0.05) | Cmax ([2]; both, beagle, dog, plasma, po, […], CMAX (trametinib in plasma), First dose (Day 1), trametinib […] p.o., alone or with sapanisertib 0.1 mg/kg (see label), arithmetic mean (%CV), n = 4) [ng/mL] | half-life ([2]; both, beagle, dog, plasma, po, […], T1/2 (trametinib in plasma), Steady-state (Day 20), trametinib […] p.o. q.d., mean (%CV), one subject of the trametinib-alone group excluded) [h] | Tmax ([2]; both, beagle, dog, plasma, po, […], First dose (Day 1), trametinib […] p.o., n = 4) [h] | Tmax ([2]; both, beagle, dog, plasma, po, […], Steady-state (Day 20), trametinib […] p.o. q.d., n = 4) [h] | Dogs with minimal to marked increases in urine protein concentration (laboratory beagle dogs; Day 25, greater than pre-study values, 4 dogs per group) | Urine protein concentration, highest value (up to) (laboratory beagle dogs; Day 25, semi-quantitatively by urine dipstick) | Globulin concentration, times pre-study (up to) (laboratory beagle dogs; Days 7, 20, and/or 25) | Serum phosphorus concentrations, times pre-study (as low as) (laboratory beagle dogs; Days 7 and 20, both sexes in all groups) [x] | Individual animal fibrinogen concentration, times pretreatment (up to) (laboratory beagle dogs; various time points, most pronounced in Group 3) | Trametinib AUC in mice during combination treatment [3] | Plasma trametinib concentration after single oral dose ([4]; 0.06 or 0.03 mg/kg, inconsistent, frequently below assay detection limit, for each dose one of two dogs below detection) [ng/mL] | Time to detection of trametinib in plasma post dose ([4]; single oral dose 0.06 or 0.03 mg/kg) [h]
CC(=O)Nc1cccc(-n2c(=O)n(C3CC3)c(=O)c3c(Nc4ccc(I)cc4F)n(C)c(=O)c(C)c32)c1 [Trametinib, trametinib dimethyl sulfoxide] | known inducer | up to six-fold | 1.2 | 3.1 | absence of significant differences | 0.64 | 58.8 | 1.5 | 2 | one male dog | ≥ 1,000 mg/dL | up to 1.45 x | ≥ 0.74 | up to 2.61 x | significantly increased |  | 
CC(=O)Nc1cccc(-n2c(=O)n(C3CC3)c(=O)c3c(Nc4ccc(I)cc4F)n(C)c(=O)c(C)c32)c1 [trametinib, as initially formulated, trametinib] |  |  |  |  |  |  |  |  |  |  |  |  |  |  |  | < 0.1 | ≥ 24

Source: publication PMC9794608 (Frontiers in Veterinary Science, 2022)
